# Test results published in patent US20170367338A1, “COMPOSITIONS AND METHODS FOR IMPROVING AGRONOMIC CHARACTERISTICS OF PLANTS” (MONSANTO TECHNOLOGY LLC, priority 2014, published 2017).
# Read-outs that look alike come from different tables or passages of the source. Marks after values point to notes of the source that are not given here.
# Columns and labels:
# [1] = Corn seed treatment field trials (yield); type: in vivo; settings: seed treatment in corn, multi-location replicated field trials
# Experimental: (§1) Tioxazafen was combined with commercial fungicides and insecticides in a tank slurry mix with colorant, polymer, and water at the recommended rates and allowed to mix thoroughly. Using a Gustafson continuous batch seed coater the seed batch was loaded, the treatment slurry was injected and the mixture was allowed to tumble for 35-40 seconds before being ejected into a paper storage bag.
# (§2) Predictive nematode sampling was conducted prior to field trial implementation to ensure appropriate levels of nematode pressure. Trial areas were divided into 2 acre sections based upon soil type, crop history, tillage, drainage, fertilization and other agronomic factors. […] Sub-samples (˜1 pint of soil) were taken from each composite sample and placed in a plastic bag, with appropriate handling to ensure viability of nematodes, and sent to a lab for nematode quantification. […]
# (§3) Quantitative in-season nematode sampling using root and soil samples was conducted eight weeks after planting for corn and soy trials. […] Samples were sent to a lab for nematode quantification.
# (§4) Yield data was collected using commercially available harvesting equipment to harvest each plot. The data were calculated to represent bushels per acre by taking the grain weight over the square footage of each plot and adjusting to 15% moisture.
# [2] = Soy seed treatment field trials (yield); type: in vivo; settings: seed treatment in soy, multi-location replicated field trials
# Experimental: as §1, §2, §3, §4
# [3] = system: root knot nematode (RKN); test: RKN greenhouse soil assay on cucumber plants; type: in vivo; settings: Acetone formulation (10% acetone in 0.05% Triton X 100), 1 mg/kg
# Text: Cucumber seeds are planted in a sandy soil mixture in two inch square plastic pots. When the cotyledons are fully opened and just as the first leaf begins to emerge, usually 7 days after planting, chemistry for the 7 day treatment is applied. One week later the chemistry for the 0 day treatment is applied. Separate plants are used for each application. The plants are generally in the 1-2 leaf stage now. At least four hours after the chemistry application the pots are inoculated with root knot nematode (RKN) eggs. Plants are rated for galling 14 days after the egg inoculation.
# (§5) One milligram of chemistry per four pots is equal to one kilogram per hectare of chemical. A standard test uses four replications. For rates above 2 kg/ha, the desired amount of chemical is weighed into a 30 ml vial (example: 8 kg/ha rate =8 mg chemical in 30 ml vial). The chemical is dissolved in 2 ml of appropriate solvent, generally acetone. For rates below 2 kg/ha, 2 milligrams of chemistry is weighed into the vial and dissolved in 2 ml of the solvent. The appropriate amount of chemical concentrate is then pipetted into a separate 30 ml vial and solvent is added to bring the volume to 2 ml (example 0.5 kg/ha=0.5 ml of concentrate+1.5 ml solvent). Each dissolved concentrate is then brought to a total of 20 milliliters using 0.05% Triton X 100 surfactant solution.
# (§6) Pots to be treated are moist but not saturated. To each of four pots, five milliliters of the appropriate chemical solution is pipetted to the media surface making sure to avoid contact with the base of the plant. Immediately following chemical application, using a mist nozzle, the pot surface is wetted sufficiently to saturate the pot watering in the chemistry. The chemical application is done in the morning.
# (§7) Nematode eggs, either SCN or RKN, are added to distilled water to create a concentration of 1000 vermiform eggs […]. At least four hours after chemical treatment the eggs are applied to the treated pots plus non-treated check plants. A small hole about 1 cm deep is punched into the pot surface. One milliliter of the nematode egg slurry is pipetted into the hole. Immediately afterwards the hole is gently covered. Watering of the test plants is then restricted to only water as needed to prevent wilt for a period of 24 hours. After the 24 hour restricted watering, normal sub-irrigation watering is done for the duration of the test.
# [4] = system: root knot nematode; test: Pre-plant incorporated (PPI) greenhouse test of root knot nematode on cucumber plants; type: in vivo; settings: fourteen day pre-plant incorporated; for pest or weed control at 4000 g/ha: 336 h, 4 kg/ha, read-out: percent control (galling reduction), 4 kg/ha rate; for pest or weed control at 8000 g/ha: 8 ka/ha, read-out: percent control (galling reduction), 8 ka/ha rate
# Text: The PPI test examines the effect of pre-incorporation of compounds in soil and longer aging to simulate in furrow methods of nematicide application in the field. The PPI test exposes compounds to a higher volume of soil and drying which can result in more severe soil binding. Compounds are also aged for longer periods which can lead to more extensive biotic and abiotic degradation further limiting activity.
# The chemically treated soil (sandy soil mix) for all treatment days (e.g., 7 days, 14 days, 21 days) treatments is potted into their appropriate pots. On the same day the 7 day treatment pots are seeded. One week later eggs are applied and 14 days after egg application the test is harvested. The 14 day treatments are planted 7 days after the first planting. The 14 day planting and 7 day inoculation happen on the same day. One week later the 14 day treatments are inoculated with eggs. These are harvested 14 days after the inoculation. The 21 day treatments are planted 14 days after the first planting. The 14 day inoculation and 21 day planting are done on the same day. One week later the 21 day plants are inoculated with eggs. The 7 day treatment is harvested the same day as the 21 day inoculation. Fourteen days after inoculation the 21 day plants are harvested.
# For each compound a stock is prepared using 4 mg material in 4 ml of acetone. The soil is mixed by placing 80 ml of field soil and 320 ml of sand in a plastic bag and mixing well. The formulation for treatment is done by adding 2.13 ml (8 kg/ha rate), 1.06 ml (4 kg/ha rate) or 0.53 ml (2 kg/ha rate) to a vial and raising it with 10 ml in 0.05% X100. Soil is then treated by adding the entire 10 ml to the 400 ml of mix in the bag. The treated soil is immediately mixed well in the sealed bag to distribute the compound evenly. Approximately 95 ml is used to fill each 2-inch square pot up to the top with some soil compression and flattening. For each compound and for the control treatments 4 pots are filled. All pots are watered until moist but with no run-out through the bottom.
# The PPI test simulates 8, 4 and 2 kg/ha rates incorporated 15 cm deep in the field and is equivalent to the 2, 1 and 0.5 kg/ha drench application rates in the standard 2-inch pot cucumber greenhouse assay.
# [5] = system: Heterodera glycines (SCN); test: Seed treatment test of soybean cyst nematode on soybean; type: in vivo; settings: for pest or weed control at 0.375 mg/g / pest or weed control at 1.5 mg/g: Heterodera glycines, 672 h, read-out: percent cyst reduction relative to control blank treatment
# Experimental: (§8) For a given concentration the chemical is dissolved in 500 ul of acetone and one gram of cucumber seed (RKN test) or soybean seed (SCN test) is added (e.g., 20 mg active ingredient in 500 ul acetone plus 1 gram of seed). The seed solutions are agitated until all seeds were thoroughly covered with the chemical solution. The acetone is then allowed to evaporate by air drying the seeds. The seeds are planted in 2-inch pots containing sandy soil and then the pots are inoculated with 1000 Meloidogyne incognita (RKN) or 1000 Heterodera glycines (SCN) eggs per pot three days after planting. Plants are rated for galling 14 days after egg inoculation for RKN or 28 days after egg inoculation for SCN.
# [6] = system: root knot nematode (RKN); test: RKN greenhouse soil assay on cucumber plants; type: in vivo; settings: Radex emulsifiable concentrate formulation (6.25% active ingredient)
# [7] = system: Meloidogyne incognita; test: Summer field evaluation of pre-plant incorporated compounds on squash; type: in vivo; settings: 4 kg/ha
# Experimental: Test plots of 33 cm diameter holes were bored 41 cm deep into clay soil and filled with a mixture of 80% sand and 20% silt loam soil. Technical compound for each treatment was dissolved in 50 ml acetone containing 250 ul of Triton X-100 surfactant. This solution was added to 450 ml water and poured onto 95 liters of sand/soil mixture in a rotating drum mixer. While continuing to rotate the mixing drum 66 grams of chopped, galled, tomato roots was added and thoroughly distributed. The treated soil was sufficient to fill the top 15 cm of each of the 6 replicate plots, thus simulating a PPI treatment. The plots were then watered lightly and a mixture of M. incognita eggs and larvae were injected 5 cm deep at 5 points within the plot (100k eggs/larvae in 10m1 per plot). Three-week old squash (cv. Liberator III) with 1 fully expanded true leaf was planted 4 days after soil treatment, one per plot.
# [8] = system: soybean cyst nematode (SCN); test: SCN greenhouse sand assay on soybean plants; type: in vivo; settings: Glycine max, 672 h, test d, read-out: percent control (cyst number reduction) relative to the control blank treatment; for pest or weed control at 100 g/ha: 0.1 kg/ha; for pest or weed control at 250 g/ha: 0.25 kg/ha
# Text: Soybeans seeds are planted in 100% sand in two inch square plastic pots. Chemical treatment is done when the soybeans show the first trifoliate beginning to emerge about 10 to 12 days after planting. At least four hours after chemical application the nematode soybean cyst nematode (SCN) eggs are applied and 28 days after the egg inoculation the test is harvested.
# as §5, §6, §7
# [9] = system: C. elegans; test: Three day C. elegans well assay; type: in vivo; settings: Caenorhabditis elegans, L1 larvae
# Summary of the method: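 Contact assay in wells: DMSO dilutions (4 ul from 100× stocks at 10 mg/ml) with bacterial feed in M9 buffer plus ampicillin and nystatin. L1 (starvation-arrested) or L4 worms added, shaken at 20° C. Scored at 4, 24, 48 and 72 hours.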
# [10] = system: caspase-3; test: Caspase-3 activity in H4IIE cells (DEVD-AMC); type: cell-based; settings: rat hepatoma derived H4IIE cells, concentrations up to 300 μM
# Experimental: To evaluate whether the compound classes of this invention are able to induce apoptosis, caspase-3 activity was determined after compound exposure in rat hepatoma derived H4IIE cells using a caspase substrate (DEVD, Asp-Glu-Val-Asp) labeled with a fluorescent molecule, 7-Amino-4-methylcoumarin (AMC). Caspase 3 cleaves the tetrapeptide between D and AMC, thus releasing the fluorogenic […] AMC. Following the test article exposure to cells in 96-well plates, medium was aspirated from plates and PBS added to each well. Plates were stored at −80° C. to lyse cells and store samples until further analysis. On the day of analysis, plates were removed from freezer and thawed. Caspase buffer with fluorescent substrate was added to each well and incubated at room temperature for one hour. AMC release was measured in a spectrofluorometer at an excitation wavelength of 360 nm and an emission wavelength of 460 nm. Values are expressed as relative fluorescent units (RFU).
# [11] = system: Meloidogyne incognita (RKN); test: Seed treatment test of root knot nematode on cucumber; type: in vivo; settings: 10 mg ai/gram seed (abamectin positive control), cucumber seeds
# Experimental: as §8
# [12] = mice; cited from earlier work
# [13] = 24 h, one day of exposure, read-out: EC50 L1 1D
# [14] = 48 h, two days of exposure, read-out: EC50 L1 2D
# [15] = 72 h, three days of exposure, read-out: EC50 L1 3D
molecule,measurement,setting,value
"c1ccc(-c2noc(-c3cccs3)n2)cc1 [Tioxazafen, 3-phenyl-5-(2-thienyl)-1,2,4-oxadiazole]",effect on yield,[1],yield enhancement
same,effect on yield,[2],yield enhancement
Fc1ccc(-c2noc(-c3cccs3)n2)cc1 [compound 5479],"percent control (galling reduction), Acetone 1 mg/kg",[3],91%
same,pest or weed control at 4000 g/ha,[4]; test a,89%
same,"percent control (galling reduction), 2 kg/ha rate",[4]; test a,71^a percent
same,pest or weed control at 8000 g/ha,[4]; test a,100%
same,pest or weed control at 0.375 mg/g,"[5]; 0.375 mg ai/gram seed, test a",67%
same,pest or weed control at 0.375 mg/g,"[5]; 0.375 mg ai/gram seed, test b",69%
same,pest or weed control at 1.5 mg/g,"[5]; 1.5 mg ai/gram seed, test a",88%
same,pest or weed control at 1.5 mg/g,"[5]; 1.5 mg ai/gram seed, test b",83%
same,"percent control (galling reduction), Radex 1 mg/kg",[6],96%
Clc1ccc(-c2noc(-c3ccco3)n2)cc1 [compound 5523],"percent control (galling reduction), Acetone 1 mg/kg",[3],86%
same,pest or weed control at 4000 g/ha,[4]; test a,87%
same,"percent control (galling reduction), 2 kg/ha rate",[4]; test a,59^a percent
same,pest or weed control at 8000 g/ha,[4]; test a,99%
same,control of M. incognita by PPI application,[7],significant control
same,"percent control (galling reduction), Radex 1 mg/kg",[6],86%
Clc1ccc(-c2noc(-c3cccs3)n2)cc1 [compound 5527],"percent control (galling reduction), Acetone 1 mg/kg",[3],91%
same,pest or weed control at 4000 g/ha,[4]; test a,90%
same,"percent control (galling reduction), 2 kg/ha rate",[4]; test a,57^a percent
same,pest or weed control at 8000 g/ha,[4]; test a,96%
same,pest or weed control at 0.375 mg/g,"[5]; 0.375 mg ai/gram seed, test a",43%
same,pest or weed control at 1.5 mg/g,"[5]; 1.5 mg ai/gram seed, test a",71%
same,"percent control (galling reduction), Radex 1 mg/kg",[6],80%
Fc1cc(Cl)ccc1-c1cnc(-c2cccs2)o1 [compound 5915],pest or weed control at 100 g/ha,[8],44%
same,pest or weed control at 250 g/ha,[8],74%
same,EC50,[9]; [13],0.4 µg/mL
same,EC50,[9]; [14],0.4 µg/mL
same,EC50,[9]; [15],0.4 µg/mL
same,pest or weed control at 4000 g/ha,[4]; test b,70%
same,pest or weed control at 8000 g/ha,[4]; test b,99%
same,induction of caspase-3,[10],no induction of caspase-3
Cc1cc(Cl)ccc1-c1nsc(-c2ccco2)n1 [compound 5938],pest or weed control at 100 g/ha,[8],60%
same,pest or weed control at 250 g/ha,[8],89%
same,EC50,[9]; [13],1.6 µg/mL
same,EC50,[9]; [14],1.6 µg/mL
same,EC50,[9]; [15],1.6 µg/mL
same,pest or weed control at 4000 g/ha,[4]; test b,90%
same,pest or weed control at 8000 g/ha,[4]; test b,100%
same,control of M. incognita by PPI application,[7],excellent control
same,induction of caspase-3,[10],no induction of caspase-3
Abamectin [reference compound],percent control (galling reduction) relative to the control blank treatment,[11],84%
same,percent cyst reduction relative to control blank treatment,"[5]; 0.375 mg ai/gram seed, test a",−14^a percent
same,percent cyst reduction relative to control blank treatment,"[5]; 1.5 mg ai/gram seed, test a",−24^a percent
same,oral LD50,[12],13.6 mg/kg
